Assay results published in publication PMC10065799, “High-throughput profiling of sequence recognition by tyrosine kinases and SH2 domains using bacterial peptide display” (eLife, 2023).

biological target: c-Src kinase domain (Homo sapiens, UniProt P12931); assay: pTyr-Var library bacterial peptide display kinase screen (enrichment scores); format: biochemical; conditions: sheet "Src"; effect of the variant peptide relative to its reference peptide in the pTyr-Var library screen;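 also: log2 fold change in enrichment of variant over reference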

Sequence | Screen
DPLLTYLFPPK [LMNA_Y481_R482L] | 2.327
EFQLPYFNTVP [BMPR1A_Y457_M460T_YF] | -0.7468
EGDGVYTLNNK [HP_Y125_E130K] | 0.08373
EWCSPYGLTPR [GRIN3B_Y601_R598C] | 1.62
FVPSFYHAFSG [ACTN4_Y265_S262P_YF] | -1.103
IDPFTYTPFGS [CYP3A4_Y432_I431T_YF] | -1.161
IGERTYGQVFK [CDK13_Y716_G714R_YF] | -0.5578
IRSGIYFKPES [L2HGDH_Y102_H98R_YF] | -1.512
KEKLCYVAPDF [ACTA1_Y220_L223P] | -1.653
KHCEDYVFSFN [DSC1_Y846_C848F_YF] | 1.064
LDFNEYFRFLN [HPRT1_Y198_D201Y_YF] | 2.939
LFSNAYLSDLA [ALDH1A1_Y119_N121S_YF] | 1.319
NVADHYRVFKP [ATP6V0D2_Y271_G272R_YF] | -3.184
PQDVTYARLHS [LILRB4_Y412_Q414R] | -0.3004
QMVGKYASSFM [AVPR2_Y124_M123K_YF] | -1.364
QQMGTYGVRAA [ICAM2_Y260_R256Q] | 0.6458
RPAFTYATLIR [FOXP3_Y342_P339A] | 1.034
RPPFTYATLIH [FOXP3_Y342_R347H] | 0.0554
VDGSVYKLPPS [GCK_Y413_H416P] | -1.181

same assay, conditions: sheet "Src"; variant peptide versus its reference peptide in the pTyr-Var library screen

Sequence | Screen
ESAAIYNPVIF [RHO_Y301_K296E_YF] | 0.5635
FSCLPYRRLAF [SLC52A2_Y305_G306R_YF] | -1.493
NQELIYEGQRL [TBK1_Y354_R357Q] | -0.1995
NTGVFYDLFGG [PTPN11_Y63_D61V_YF] | 0.1029
PLDGGYFTLQI [TP53_Y327_E326G] | -1.493
PPSELYFVKVD [TERT_Y707_P704S] | -0.06532
RRIHSYRGHLC [VHL_Y112_W117C] | -2.769
RRIHSYRGQLW [VHL_Y112_H115Q] | -2.232
SVMAEYGLFRA [VSX2_Y219_G223R_YF] | -0.02483

biological target: T1, c-Abl kinase domain (Mus musculus, UniProt P00520); assay: as above; format: biochemical; conditions: fig5-data2, sheet "Abl"; Screen for the variant/reference peptide pair, pTyr-Var library;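 also: log2 fold change in enrichment of variant over reference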
T1 sequence (P00520 242-493 limits assumed): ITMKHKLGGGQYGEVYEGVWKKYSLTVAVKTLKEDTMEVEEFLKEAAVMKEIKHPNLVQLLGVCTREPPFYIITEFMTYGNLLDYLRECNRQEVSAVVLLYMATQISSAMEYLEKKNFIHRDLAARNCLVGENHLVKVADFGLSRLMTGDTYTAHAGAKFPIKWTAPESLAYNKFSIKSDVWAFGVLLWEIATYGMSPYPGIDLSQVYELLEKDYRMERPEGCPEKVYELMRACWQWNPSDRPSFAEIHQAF

Sequence | Screen
ASPKSYPSQKH [CAP2_Y316_T311A] | 0.389
DPEGAYTTRGG [EPHA3_Y779_A777G] | -2.084
EVDETYVPKKF [ALB_Y521_E525K] | 0.9455
PQDVTYARLHS [LILRB4_Y412_Q414R] | -1.045
PRLMLYNPTTF [EGFR_Y270_P266R_YF] | -1.245
RALCHYFKLNI [ETV6_Y401_R399C_YF] | 0.924
REGAKYVSHCA [ASS1_Y113_G117C] | -1.469
RPAFTYATLIR [FOXP3_Y342_P339A] | 1.493

More lines, now with the values ahead:

Screen | Sequence
0.6462 | DKATEYIQFVR [MAX_Y70_M74V_YF]
-0.7051 | DVRQEYSGMIL [PLXND1_Y616_P617S]
-0.5363 | EFITRYIDSLK [PSMA7_Y110_A112D_YF]
-0.6842 | EFTAGYNVKFD [GPX4_Y123_A120T]
-1.124 | EIIPFYGMSSF [FNDC3B_Y175_T179S_YF]
-1.069 | ENKGVYVPMSG [IVD_Y277_L279P]
1.003 | FRRITYFNWRH [PDE6B_Y556_H557Y_YF]
1.302 | GFKVRYATGSI [FGFR1_Y210_W213G_YF]
-2.251 | IDAVCYFRMEN [NPHS2_Y194_I192V_YF]
-1.313 | IGGHAYGDQFR [IDH1_Y135_R132G_YF]
-2.042 | KGEDFYCVTRH [FHL1_Y149_C153R]
-0.1285 | KRIETYFSKNF [PLP1_Y50_L46R_YF]
0.133 | LEIETYPRLLD [KRT12_Y429_R430P]
2.373 | MLEVPYVDHNS [F10_Y384_R387H]
0.4744 | RGRSTYFWPSP [GAGE12J_Y9_R13S_YF]
0.7055 | RIDPDYMGRVR [IGSF9_Y81_V82M]
0.3384 | RLNCIYFKDQT [RS1_Y165_W163C_YF]
-0.4092 | RSHRSYSCQVM [IGLL1_Y192_R189H]
0.808 | SLNEEYAKNKT [MSH2_Y563_T564A]

same assay, conditions: sheet "Abl"; effect of variant peptide relative to its reference peptide in pTyr-Var library screen (enrichment)

Screen | Sequence
-2.912 | CVAARYMDMKG [WFIKKN2_Y93_V96M]
-0.4882 | DKPENYRRLDI [VHL_Y175_V170D]
-1.491 | DTQNSYRCATS [TSC1_Y304_G305R]
2.88 | DVQNEYDSNHC [ZFYVE16_Y36_A35E]
-2.772 | EIASHYRHLLR [ZBTB46_Y14_T11A]
-0.7143 | HLQDEYDFKCK [STAT1_Y170_D165H]
-4.72 | HSREDYFECFQ [ZIM2_Y411_Q408R]
-2.672 | IVRSLYEDPED [VHL_Y185_L188P]
-0.3891 | KDHPDYKFQRR [SOX10_Y171_P175R_YF]
-1.428 | KPGVNYFFQVS [TTN_Y28165_R28168Q_YF]
-2.688 | LEPGIYIPEDD [XPNPEP3_Y455_I450L]
0.1881 | LLKMMYLMLDN [STAT1_Y203_K201M]
3.605 | NGEDLYAGSTD [XRCC1_Y515_P514L]
0.4767 | RRGMPYGGHGD [TGM1_Y312_R315H]
1.264 | SVTFTYSPALN [TP53_Y126_C124Y_YF]
-1.788 | TENAGYFFQVS [TTN_Y31721_R31724Q_YF]
-3.682 | TGFRPYVCPFD [YY1_Y383_D380Y_YF]

test system: Fer kinase domain; assay: as above; format: biochemical, mouse; conditions: sheet "Fer"; value of the variant peptide against its reference peptide in the pTyr-Var library screen with Fer;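 also: log2 fold change in enrichment of variant over reference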

Sequence | Screen
FPSLPYSPVSS [CAMKK2_Y128_C123Y_YF] | -0.5143
IDPFTYTPFGS [CYP3A4_Y432_I431T_YF] | -1.49
NTGVFYDLFGG [PTPN11_Y63_D61V_YF] | 0.6171

Further lines, results first:

Screen | Sequence
1.775 | FTFNSYFMHWV [IGHV1-46_Y51_T49N_YF]
-0.7776 | PLGPLYASSNT [INSR_Y992_P997T]
0.1249 | QRCFVYFFSFL [PTEN_Y176_R173C_YF]
0.1451 | QRHFVYFFSFL [PTEN_Y176_R173H_YF]

same assay, conditions: sheet "Fer"; variant peptide relative to its reference peptide, pTyr-Var library screen enrichment

Sequence | Screen
ESAAIYNPVIF [RHO_Y301_K296E_YF] | 0.08101
NQELIYEGQRL [TBK1_Y354_R357Q] | 0.5191

The next lines start with the values.

Screen | Sequence
0.6103 | AGDGRYEVLFL [SEMA3F_Y478_A474G]
2.568 | FDSPFYQDSLP [TSC1_Y508_R509Q]
0.9219 | FVTSMYNEILI [TRPV1_Y310_M315I]

test system: EPHB1 kinase domain; assay: as above; format: biochemical, human; conditions: sheet "EPHB1"; variant seq vs reference seq; bacterial peptide display enrichment

Sequence | Screen (variant relative to reference peptide, measured in the pTyr-Var library screen)
RRIHSYRGHLC [VHL_Y112_W117C] | -1.181
RRIHSYRGQLW [VHL_Y112_H115Q] | -1.797

The next lines start with the values.

Screen (variant relative to reference peptide, measured in the pTyr-Var library screen) | Sequence
-0.06401 | HSREDYFECFQ [ZIM2_Y411_Q408R]
1.333 | MGSFNYLGFAW [SPTLC2_Y178_R183W_YF]
-1.855 | PEVSGYCHFAD [TG_Y234_C237Y_YF]
1.233 | TGFRPYVCPFD [YY1_Y383_D380Y_YF]

same assay, conditions: sheet EPHB1; effect of the variant peptide relative to its reference peptide in the pTyr-Var library screen (enrichment scores)

Sequence | Screen
FVPSFYHAFSG [ACTN4_Y265_S262P_YF] | -0.2788
LFSNAYLSDLA [ALDH1A1_Y119_N121S_YF] | 1.358
RPAFTYATLIR [FOXP3_Y342_P339A] | -0.4742
RPPFTYATLIH [FOXP3_Y342_R347H] | 0.127
RVLHNYLVWCV [ECEL1_Y400_R404C] | -0.3702
VWALTYCDLHK [KCNH2_Y827_R823W] | 1.577

Second part, the sequence after the results:

Screen | Sequence
0.6281 | CPFNLYAAQLS [HGD_Y40_E42A_YF]
-1.963 | FGSGNYNVFGN [HNRNPA2B1_Y300_D302V_YF]
0.3113 | KFLENYFDLEK [MMP3_Y41_K45E_YF]
1.011 | LKMLVYMDMSK [LRRC7_Y234_L235M]
-0.9052 | LPKDLYLISQM [LARP4_Y141_S137P]
3.84 | SSSPTYLDLPF [GLI3_Y168_P169L]
